Assay results reported in patent US9434725B2, “5-azaindazole compounds and methods of use” (priority 2012, dated 2016).
Structures can show the parent of a compound that is named as a salt. Where two headings read alike, the source gives them in different places.

Columns and labels:
PIM1 = PIM1 (Homo sapiens (Human), UniProt P11309); assay: biochemical; assay type: biochemical; details: 10 μM ATP, 90 min, room temperature; read-out: PIM1 LC3K (KI)
Procedure, shortened: (§1)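 Read-out is microfluidic electrophoretic separation of phosphorylated from unphosphorylated fluorescent Pim peptide, with Ki calculated from conversion. Reactions ran 90 min at room temperature in HEPES pH 7.2 containing MgCl2, Tween 20 and DTT, ended by EDTA-containing buffer.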

PIM2 = PIM2 (Homo sapiens (Human), UniProt Q9P1W9); assay: Pim kinase binding activity, Caliper LC3000 microfluidic peptide phosphorylation assay, PIM2; assay type: biochemical; details: 10 μM ATP, 90 min, room temperature; read-out: PIM2 LC3K (KI)
Procedure, shortened: as §1

PIM3 = PIM3 (Homo sapiens (Human), UniProt Q86V86); assay: Pim kinase binding activity, Caliper LC3000 microfluidic peptide phosphorylation assay, PIM3; assay type: biochemical; details: 10 μM ATP, 90 min, room temperature; read-out: PIM3 LC3K (KI)
Procedure, shortened: as §1

BaF3 PIM1 cells = assay: In vitro cell proliferation potency assay (Cell Titer Glo), BaF3 PIM1 cells; assay type: cell-based, murine; details: Mus musculus, BaF3, BaF3 cells transfected with PIM1, incubated overnight; read-out: Prolif BaF3_PIM 1 (IC50)
[1] = test system: MM1.S (multiple myeloma) cells; assay: In vitro cell proliferation potency assay (Cell Titer Glo), MM1.S cells; assay type: cell-based; details: Homo sapiens, read-out: Prolif MM1S ATP (EC50)
Experimental: BaF3 parental line was obtained from the DSMZ repository. BaF3 lines transfected with PIM1 or PIM2 were generated. Mouse IL-3 was purchased from R&D Systems. G418 was purchased from Clontech. Media for BaF3 parental line contained RPMI, 10% FBS, 2 mM L-Glutamine, 2 ng/mL mIL-3. Media for BaF3 PIM1 & 2 lines contained RPMI, 10% FBS, 2 mM L-Glutamine, […]. Media for MM1.S (multiple myeloma cells) line contained RPMI, 10% FBS, 2 mM L-Glutamine.
BaF3, a murine interleukin-3 dependent pro-B cell line, parental cells, BaF3 PIM1 cells, BaF3 PIM2 cells, and MM1.S (multiple myeloma) cells were seeded at 2 k/well, 5 k/well, 5 k/well, and 10 k/well respectively, in a 384-well plate, at 45 μL/well. Test compound was added at 5 μL/well. BaF3 cells (parental and transfected) were incubated overnight, while MM1.S cells were incubated for 72 hours at 37° C., 5% CO2. CELL TITER GLO® Reagent (Promega) was added at 50 μL/well, the plates were incubated for 30 minutes, and their luminescence read on an HT Analyst. IC50/EC50 values for the test compound were calculated.

[2] = MM1.S, 72 h, MM1.S cells, 72 hours

Chain of PIM1 (P11309 whole entry): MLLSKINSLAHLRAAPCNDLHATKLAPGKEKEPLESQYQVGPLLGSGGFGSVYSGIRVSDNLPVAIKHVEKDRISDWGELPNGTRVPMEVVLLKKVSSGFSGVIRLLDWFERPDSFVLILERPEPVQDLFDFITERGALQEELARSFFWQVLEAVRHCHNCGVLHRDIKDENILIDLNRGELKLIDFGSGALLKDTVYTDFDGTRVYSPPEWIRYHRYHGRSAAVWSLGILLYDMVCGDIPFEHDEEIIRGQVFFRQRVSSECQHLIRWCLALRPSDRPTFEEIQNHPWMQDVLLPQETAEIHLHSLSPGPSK
Chain of PIM2 (Q9P1W9 whole entry): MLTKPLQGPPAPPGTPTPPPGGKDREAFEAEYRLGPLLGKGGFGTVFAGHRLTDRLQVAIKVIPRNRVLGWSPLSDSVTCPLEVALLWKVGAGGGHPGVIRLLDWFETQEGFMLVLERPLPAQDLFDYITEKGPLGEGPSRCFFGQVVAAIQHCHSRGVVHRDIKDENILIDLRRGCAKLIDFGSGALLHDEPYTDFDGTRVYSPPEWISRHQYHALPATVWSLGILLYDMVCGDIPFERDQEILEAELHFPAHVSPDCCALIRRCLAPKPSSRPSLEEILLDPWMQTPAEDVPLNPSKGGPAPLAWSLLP

Work on `CCc1cncc(-c2cc3c(cn2)cnn3-c2cccc(N3CCNCC3)n2)n1` [Compound 149, 6-(6-ethylpyrazin-2-yl)-1-(6-piperazin-1-yl-2-pyridyl)pyrazolo[4,3-c]pyridine] yielded a Ki (PIM1) of 0.058 nM, a Ki (PIM2) of 0.678 nM and a Ki (PIM3) of 0.048 nM. For the same compound, the IC50 (BaF3 PIM1 cells) was 240 nM and the EC50 [1, 2] was 4.7 µM.

With `CS(=O)(=O)CCn1cc(-c2cc3c(cn2)cnn3-c2cccc(N3CCCNCC3)n2)cn1` [Compound 157, 1-(6-(1,4-Diazepan-1-yl)pyridin-2-yl)-6-(1-(2-(methylsulfonyl)ethyl)-1H-pyrazol-4-yl)-1H-pyrazolo[4,3-c]pyridine] the Ki (PIM1) was 0.087 nM, the Ki (PIM2) was 6.2 nM and the Ki (PIM3) was 0.055 nM. The IC50 (BaF3 PIM1 cells) was 2800 nM and the EC50 [1, 2] was 4 µM.

With `c1cc(N2CCCNCC2)nc(-n2ncc3cnc(-c4cnn(C5CC5)c4)cc32)c1` [Compound 174, 1-(6-(1,4-Diazepan-1-yl)pyridin-2-yl)-6-(1-cyclopropyl-1H-pyrazol-4-yl)-1H-pyrazolo[4,3-c]pyridine] the Ki (PIM1) was 0.069 nM, the Ki (PIM2) was 0.978 nM and the Ki (PIM3) was 0.079 nM. For the same compound, the IC50 (BaF3 PIM1 cells) was 271 nM and the EC50 ([1]; MM1.S cells, 72 hours) was 3.1 µM.

`COc1ccc(-n2ncc3cnc(-c4cncc(C)n4)cc32)nc1N1CCC[C@H](N)C1` [Compound 186, (S)-1-(3-methoxy-6-(6-(6-methylpyrazin-2-yl)-1H-pyrazolo[4,3-c]pyridin-1-yl)pyridin-2-yl)piperidin-3-amine] showed a Ki (PIM1) of 0.0212 nM, a Ki (PIM2) of 0.134 nM and a Ki (PIM3) of 0.013 nM. For the same compound, the IC50 (BaF3 PIM1 cells) was 220 nM and the EC50 ([1]; MM1.S cells, 72 hours) was 0.508 µM.

`Cc1cncc(-c2cc3c(cn2)cnn3-c2ccc(C#N)c(N3CCC[C@H](N)C3)n2)n1` [Compound 201, (S)-2-(3-aminopiperidin-1-yl)-6-(6-(6-methylpyrazin-2-yl)-1H-pyrazolo[4,3-c]pyridin-1-yl)nicotinonitrile] showed a Ki (PIM1) of 0.068 nM, a Ki (PIM2) of 0.286 nM and a Ki (PIM3) of 0.02 nM. It also gave an IC50 (BaF3 PIM1 cells) of 490 nM and an EC50 ([1]; MM1.S cells, 72 hours) of 1.1 µM.

`Cc1cncc(-c2cc3c(cn2)cnn3-c2ccc(C)c(N3CCC[C@H](N)C3)n2)n1` [Compound 205, (S)-1-(3-methyl-6-(6-(6-methylpyrazin-2-yl)-1H-pyrazolo[4,3-c]pyridin-1-yl)pyridin-2-yl)piperidin-3-amine] was tested, and the Ki (PIM1) was 0.018 nM, the Ki (PIM2) was 0.142 nM and the Ki (PIM3) was 0.014 nM. For the same compound, the IC50 (BaF3 PIM1 cells) was 278 nM and the EC50 [1, 2] was 1.2 µM.

For `Cc1cncc(-c2cc3c(cn2)cnn3-c2ccc(CO)c(N3CCC[C@H](N)C3)n2)n1` [Compound 218, (S)-(2-(3-aminopiperidin-1-yl)-6-(6-(6-methylpyrazin-2-yl)-1H-pyrazolo[4,3-c]pyridin-1-yl)pyridin-3-yl)methanol], the Ki (PIM1) was 0.06 nM, the Ki (PIM2) was 0.394 nM and the Ki (PIM3) was 0.054 nM. For the same compound, the IC50 (BaF3 PIM1 cells) was 212 nM and the EC50 ([1]; MM1.S cells, 72 hours) was 0.574 µM.

Work on `OCc1cncc(-c2cc3c(cn2)cnn3-c2cccc(N3CCNCC3)n2)n1` [Compound 273, (6-(1-(6-(piperazin-1-yl)pyridin-2-yl)-1H-pyrazolo[4,3-c]pyridin-6-yl)pyrazin-2-yl)methanol dihydrochloride] yielded a Ki (PIM1) of 0.117 nM, a Ki (PIM2) of 2.63 nM and a Ki (PIM3) of 0.036 nM. For the same compound, the IC50 (BaF3 PIM1 cells) was 629 nM and the EC50 ([1]; MM1.S, 72 h) was 5.5 µM.

In the case of `C=Cc1cncc(-c2cc3c(cn2)cnn3-c2cccc(N3CCNCC3)n2)n1` [Compound 274, 1-(6-(piperazin-1-yl)pyridin-2-yl)-6-(6-vinylpyrazin-2-yl)-1H-pyrazolo[4,3-c]pyridine dihydrochloride], the Ki (PIM1) is reported as 0.133 nM, the Ki (PIM2) is reported as 4.26 nM and the Ki (PIM3) is reported as 0.098 nM. For the same compound, the IC50 (BaF3 PIM1 cells) was 749 nM and the EC50 ([1]; MM1.S, 72 h) was 5.1 µM.

`OCCOc1cncc(-c2cc3c(cn2)cnn3-c2cccc(N3CCNCC3)n2)n1` [Compound 278, 2-((6-(1-(6-(piperazin-1-yl)pyridin-2-yl)-1H-pyrazolo[4,3-c]pyridin-6-yl)pyrazin-2-yl)oxy)ethanol dihydrochloride] was tested, and the Ki (PIM1) was 0.163 nM, the Ki (PIM2) was 2.62 nM and the Ki (PIM3) was 0.105 nM. The IC50 (BaF3 PIM1 cells) was 261 nM and the EC50 ([1]; MM1.S, 72 h) was over 6.2 µM.

Work on `FC(F)c1cncc(-c2cc3c(cn2)cnn3-c2cccc(N3CCNCC3)n2)n1` [Compound 279, 6-(6-(difluoromethyl)pyrazin-2-yl)-1-(6-(piperazin-1-yl)pyridin-2-yl)-1H-pyrazolo[4,3-c]pyridine trifluoroacetate] yielded a Ki (PIM1) of 0.229 nM, a Ki (PIM2) of 3.99 nM and a Ki (PIM3) of 0.132 nM. It also gave an IC50 (BaF3 PIM1 cells) of 622 nM and an EC50 ([1]; MM1.S cells, 72 hours) of 2.3 µM.

`OC1CN(c2cncc(-c3cc4c(cn3)cnn4-c3cccc(N4CCNCC4)n3)n2)C1` [Compound 281, 1-(6-(1-(6-(piperazin-1-yl)pyridin-2-yl)-1H-pyrazolo[4,3-c]pyridin-6-yl)pyrazin-2-yl)azetidin-3-ol] gave a Ki (PIM1) of 0.048 nM, a Ki (PIM2) of 3.37 nM and a Ki (PIM3) of 0.064 nM. For the same compound, the IC50 (BaF3 PIM1 cells) was 695 nM and the EC50 [1, 2] was 16 µM.

`c1cc(N2CCNCC2)nc(-n2ncc3cnc(-c4cncc(N5CCC5)n4)cc32)c1` [Compound 284, 6-(6-(azetidin-1-yl)pyrazin-2-yl)-1-(6-(piperazin-1-yl)pyridin-2-yl)-1H-pyrazolo[4,3-c]pyridine] was tested, and the Ki (PIM1) was 0.02 nM, the Ki (PIM2) was 1.83 nM and the Ki (PIM3) was 0.025 nM. The IC50 (BaF3 PIM1 cells) was 385 nM and the EC50 [1, 2] was 4.6 µM.

Work on `Cc1cncc(-c2cc3c(cn2)cnn3-c2cccc(N3CCCC4(CNC4)C3)n2)n1` [Compound 293, 1-(6-(2,6-diazaspiro[3.5]nonan-6-yl)pyridin-2-yl)-6-(6-methylpyrazin-2-yl)-1H-pyrazolo[4,3-c]pyndine] yielded a Ki (PIM1) of 0.061 nM, a Ki (PIM2) of 1.48 nM and a Ki (PIM3) of 0.112 nM. It also gave an IC50 (BaF3 PIM1 cells) of 976 nM and an EC50 ([1]; MM1.S cells, 72 hours) of 7.2 µM.

Compound `COC1(c2cccc(-n3ncc4cnc(-c5cncc(C)n5)cc43)n2)CCCNC1` (stereo not shown) [Compound 295, 1-(6-(3-methoxypiperidin-3-yl)pyridin-2-yl)-6-(6-methylpyrazin-2-yl)-1H-pyrazolo[4,3-c]pyridine] has a Ki (PIM1) of 0.256 nM, a Ki (PIM2) of 1.43 nM and a Ki (PIM3) of 0.144 nM. For the same compound, the IC50 (BaF3 PIM1 cells) was 425 nM and the EC50 ([1]; MM1.S cells, 72 hours) was 10.9 µM.

`OCCCc1cncc(-c2cc3c(cn2)cnn3-c2cccc(N3CCNCC3)n2)n1` [Compound 301, 3-(6-(1-(6-(piperazin-1-yl)pyridin-2-yl)-1H-pyrazolo[4,3-c]pyridin-6-yl)pyrazin-2-yl)propan-1-ol] showed a Ki (PIM1) of 0.034 nM, a Ki (PIM2) of 0.446 nM and a Ki (PIM3) of 0.018 nM. It also gave an IC50 (BaF3 PIM1 cells) of 781 nM and an EC50 ([1]; MM1.S cells, 72 hours) of 4 µM.

With `N[C@H]1CCC[C@@H]1Oc1cncc(-c2cc3c(cn2)cnn3-c2ccccn2)n1` [Compound 304, (1S,2S)-2-(6-(1-(pyridin-2-yl)-1H-pyrazolo[4,3-c]pyridin-6-yl)pyrazin-2-yloxy)cyclopentanamine] the Ki (PIM1) was 0.094 nM, the Ki (PIM2) was 0.744 nM and the Ki (PIM3) was 0.07 nM. For the same compound, the IC50 (BaF3 PIM1 cells) was 255 nM and the EC50 ([1]; MM1.S cells, 72 hours) was 1.2 µM.

In the case of `N[C@H]1CCC[C@@H]1Nc1cncc(-c2cc3c(cn2)cnn3-c2ccccn2)n1` [Compound 307, (1S,2S)-N1-(6-(1-(pyridin-2-yl)-1H-pyrazolo[4,3-c]pyridin-6-yl)pyrazin-2-yl)cyclopentane-1,2-diamine], the Ki (PIM1) is reported as 0.12 nM, the Ki (PIM2) is reported as 2.97 nM and the Ki (PIM3) is reported as 0.098 nM. It also gave an IC50 (BaF3 PIM1 cells) of 640 nM and an EC50 [1, 2] of 2.9 µM.

In the case of `C#Cc1cncc(-c2cc3c(cn2)cnn3-c2cccc(N3CCNCC3)n2)n1` [Compound 315, 6-(6-ethynylpyrazin-2-yl)-1-(6-(piperazin-1-yl)pyridin-2-yl)-1H-pyrazolo[4,3-c]pyridine], the Ki (PIM1) is reported as 0.136 nM, the Ki (PIM2) is reported as 1.72 nM and the Ki (PIM3) is reported as 0.057 nM. The IC50 (BaF3 PIM1 cells) was 2000 nM and the EC50 [1, 2] was 0.696 µM.

With `Cn1ncc(-c2cc3c(cn2)cnn3-c2ccccc2F)c1N1CCC(N)CC1` [Compound 316, 1-(4-(1-(2-fluorophenyl)-1H-pyrazolo[4,3-c]pyridin-6-yl)-1-methyl-1H-pyrazol-5-yl)piperidin-4-amine] the Ki (PIM1) was 15.5 nM, the Ki (PIM2) was 336 nM and the Ki (PIM3) was 47.5 nM. For the same compound, the IC50 (BaF3 PIM1 cells) was over 25000 nM and the EC50 [1, 2] was over 25 µM.
